The source of these data is US8192999B2, “Method for the identification of macromolecule targets of analytes” (priority 2005, dated 2012).

The test relates to E. coli proteins. Kind of test: Non-specific binding of MTX to proteins of E. coli cell lysate (HPLC co-fractionation). The note with it: MTX-spiked E. coli extract; FIG. 9.

Consider `CN(Cc1cnc2nc(N)nc(N)c2n1)c1ccc(C(=O)N[C@@H](CCC(=O)O)C(=O)O)cc1` [MTX, methotrexate], for which the “non-specific binding of the drug to E. coli proteins” value is listed as “no non-specific binding of the drug to any E. coli proteins was detected”.
